Assay results: PubChem BioAssay (NCI)
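Where inhibition never reached the appropriate level, the endpoint shown equals the highest concentration tested. Otherwise, values were interpolated linearly from a five-concentration, 48-hour dose response in 96-well plates. TGI: total growth inhibition.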

Assays:
Experiment in all cases: DTP human tumour cell line panel, 48 h
[1] = test system: UACC-257 melanoma
[2] = test system: MALME-3M melanoma
[3] = test system: M19-MEL melanoma
[4] = test system: A549 NSCLC
[5] = test system: HCC-2998 colon
[6] = test system: U251 CNS
[7] = test system: SK-MEL-5 melanoma
[8] = test system: 786-0 renal
[9] = test system: ACHN renal
[10] = test system: COLO 205 colon
[11] = test system: OVCAR-8 ovarian
[12] = test system: UO-31 renal
[13] = test system: HT29 colon
[14] = test system: DMS 273 small cell lung
[15] = test system: A498 renal
[16] = test system: HOP-18 NSCLC
[17] = test system: SNB-75 CNS
[18] = test system: SNB-19 CNS
[19] = test system: SN12C renal
[20] = test system: SK-MEL-28 melanoma
[21] = test system: IGROV1 ovarian
[22] = test system: KM20L2 colon
[23] = test system: RPMI-8226 leukemia
[24] = test system: OVCAR-4 ovarian
[25] = test system: UACC-62 melanoma
[26] = test system: SF-295 CNS
[27] = test system: SR leukemia
[28] = test system: SF-268 CNS
[29] = test system: OVCAR-5 ovarian
[30] = test system: SK-OV-3 ovarian
[31] = test system: OVCAR-3 ovarian
[32] = test system: SK-MEL-2 melanoma
[33] = test system: KM12 colon
[34] = test system: SF-539 CNS
[35] = test system: XF 498 CNS
[36] = test system: RXF 393 renal
[37] = test system: MOLT-4 leukemia
[38] = test system: LOX IMVI melanoma
[39] = test system: HOP-62 NSCLC
[40] = test system: CCRF-CEM leukemia
[41] = test system: RXF-631 renal
[42] = test system: HCT-15 colon
[43] = test system: DMS 114 small cell lung
[44] = test system: EKVX NSCLC
[45] = test system: NCI-H226 lung
[46] = test system: NCI-H522 lung
[47] = test system: HCT-116 colon
[48] = test system: DLD-1 colon
[49] = test system: SW-620 colon
[50] = test system: HOP-92 NSCLC
[51] = test system: HL-60(TB) leukemia
[52] = test system: NCI-H460 lung
[53] = test system: NCI-H23 lung
[54] = test system: CAKI-1 renal
[55] = test system: LXFL 529 NSCLC
[56] = test system: SNB-78 CNS
[57] = test system: K-562 leukemia
[58] = test system: M14 melanoma
[59] = test system: TK-10 renal
[60] = test system: NCI/ADR-RES ovarian
[61] = test system: MCF7 breast
[62] = test system: SN12K1 renal

SMILES: O=C1CCC[C@]2(CCCC(=O)N2)C1
- TGI [1]: > 100 µM
- TGI [2]: > 100 µM
- TGI [3]: > 100 µM
- TGI [4]: > 100 µM
- TGI [5]: > 100 µM
- TGI [6]: > 100 µM
- TGI [7]: > 100 µM
- TGI [8]: > 100 µM
- TGI [9]: > 100 µM
- TGI [10]: > 100 µM
- TGI [11]: > 100 µM
- TGI [12]: > 100 µM
- TGI [13]: > 100 µM
- TGI [14]: > 100 µM
- TGI [15]: > 100 µM
- TGI [16]: > 100 µM
- TGI [17]: > 100 µM
- TGI [18]: > 100 µM
- TGI [19]: > 100 µM
- TGI [20]: > 100 µM
- TGI [21]: > 100 µM
- TGI [22]: > 100 µM
- TGI [23]: > 100 µM
- TGI [24]: > 100 µM
- TGI [25]: > 100 µM
- TGI [26]: > 100 µM
- TGI [27]: > 100 µM
- TGI [28]: > 100 µM
- TGI [29]: > 100 µM
- TGI [30]: > 100 µM
- TGI [31]: > 100 µM
- TGI [32]: > 100 µM
- TGI [33]: > 100 µM
- TGI [34]: > 100 µM
- TGI [35]: > 100 µM
- TGI [36]: > 100 µM
- TGI [37]: > 100 µM
- TGI [38]: > 100 µM
- TGI [39]: > 100 µM
- TGI [40]: > 100 µM
- TGI [41]: > 100 µM
- TGI [42]: > 100 µM
- TGI [43]: > 100 µM
- TGI [44]: > 100 µM
- TGI [45]: > 100 µM
- TGI [46]: > 100 µM
- TGI [47]: > 100 µM
- TGI [48]: > 100 µM
- TGI [49]: > 100 µM
- TGI [50]: > 100 µM
- TGI [51]: > 100 µM
- TGI [52]: > 100 µM
- TGI [53]: > 100 µM
- TGI [54]: > 100 µM
- TGI [55]: > 100 µM
- TGI [56]: > 100 µM
- TGI [57]: > 100 µM
- TGI [58]: > 100 µM
- TGI [59]: > 100 µM

SMILES: O=C(O)CCC(=O)N1C/C(=C\c2ccccc2)C(=O)/C(=C/c2ccccc2)C1
- TGI [1]: 6.53 µM
- TGI [2]: 5.52 µM
- TGI [3]: 3.47 µM
- TGI [4]: 34.5 µM
- TGI [5]: 4.53 µM
- TGI [6]: 3.29 µM
- TGI [7]: 6.9 µM
- TGI [8]: 5.75 µM
- TGI [9]: 4 µM
- TGI [10]: 11.3 µM
- TGI [11]: 8.24 µM
- TGI [12]: 33 µM
- TGI [13]: 4.65 µM
- TGI [14]: 4.97 µM
- TGI [15]: 27.3 µM
- TGI [16]: 16.1 µM
- TGI [17]: 19.1 µM
- TGI [18]: 13.8 µM
- TGI [19]: 3.52 µM
- TGI [20]: 3.55 µM
- TGI [21]: 12.7 µM
- TGI [22]: 9.89 µM
- TGI [23]: 19.9 µM
- TGI [24]: 4.86 µM
- TGI [25]: 2.63 µM
- TGI [26]: 6.03 µM
- TGI [27]: 3.96 µM
- TGI [28]: 5.5 µM
- TGI [29]: 28.3 µM
- TGI [30]: 25.3 µM
- TGI [31]: 5.93 µM
- TGI [32]: 4 µM
- TGI [33]: 3.34 µM
- TGI [34]: 3.85 µM
- TGI [35]: 6.56 µM
- TGI [36]: 12.7 µM
- TGI [37]: 8.22 µM
- TGI [38]: 3.36 µM
- TGI [39]: 31.3 µM
- TGI [40]: 9.93 µM
- TGI [41]: 11.2 µM
- TGI [42]: 4.8 µM
- TGI [43]: 4.73 µM
- TGI [44]: 15.9 µM
- TGI [45]: 34.3 µM
- TGI [46]: 3.38 µM
- TGI [47]: 3.16 µM
- TGI [48]: 5.06 µM
- TGI [49]: 3.77 µM
- TGI [50]: 30.8 µM
- TGI [51]: 4.59 µM
- TGI [52]: 25.2 µM
- TGI [53]: 12.7 µM
- TGI [54]: 14.9 µM
- TGI [55]: 7.17 µM
- TGI [56]: 31.4 µM
- TGI [57]: > 24.6 µM
- TGI [58]: 5.39 µM
- TGI [59]: 21.2 µM

SMILES: O=c1cc(O)ccn1C1C=C(CO)C(O)C1O (stereo not drawn)
- TGI [2]: > 625 µM
- TGI [4]: > 625 µM
- TGI [60]: > 625 µM
- TGI [5]: > 625 µM
- TGI [6]: > 625 µM
- TGI [7]: > 625 µM
- TGI [11]: > 625 µM
- TGI [12]: > 625 µM
- TGI [13]: > 625 µM
- TGI [14]: > 625 µM
- TGI [16]: > 625 µM
- TGI [17]: > 625 µM
- TGI [18]: > 625 µM
- TGI [19]: > 625 µM
- TGI [20]: > 625 µM
- TGI [21]: > 625 µM
- TGI [22]: > 625 µM
- TGI [23]: > 625 µM
- TGI [24]: > 625 µM
- TGI [25]: > 625 µM
- TGI [26]: > 625 µM
- TGI [28]: > 625 µM
- TGI [30]: > 625 µM
- TGI [31]: > 625 µM
- TGI [61]: > 625 µM
- TGI [32]: > 625 µM
- TGI [33]: > 625 µM
- TGI [34]: > 625 µM
- TGI [35]: < 0.0625 µM
- TGI [36]: > 625 µM
- TGI [38]: > 625 µM
- TGI [39]: > 625 µM
- TGI [40]: > 625 µM
- TGI [42]: > 625 µM
- TGI [43]: > 625 µM
- TGI [45]: > 625 µM
- TGI [47]: > 625 µM
- TGI [48]: > 625 µM
- TGI [49]: > 625 µM
- TGI [50]: > 625 µM
- TGI [51]: > 625 µM
- TGI [52]: > 625 µM
- TGI [54]: > 625 µM
- TGI [62]: > 625 µM
- TGI [56]: > 625 µM
